Key:
Assay in all cases: SILAC LC-MS ABPP
Format in all cases: cell-based
Details in all cases: 25 μM 2 h, live DM93 cells
Q8NBF2 = target: T1, Q8NBF2 (Homo sapiens, UniProt Q8NBF2)
T1 construct: endogenous in cells; host or cells: DM93 cells (SILAC), live-cell treatment
Method in brief: (§1)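 Quantification uses SILAC ratios from LC-MS/MS of probe-modified tyrosine peptides. DM93 melanoma cells: heavy treated with 25 μM SuTEx ligand, light with DMSO (2 h, 37 °C), followed by HHS-475 probe at 100 μM for 2 h.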

P23588 = target: T2, P23588 (Homo sapiens, UniProt P23588)
T2 construct: Probe-modified proteins from the soluble fraction were conjugated to a desthiobiotin-azide tag; endogenous in cells; host or cells: DM93 (SILAC)
T2 sequence (P23588 whole entry): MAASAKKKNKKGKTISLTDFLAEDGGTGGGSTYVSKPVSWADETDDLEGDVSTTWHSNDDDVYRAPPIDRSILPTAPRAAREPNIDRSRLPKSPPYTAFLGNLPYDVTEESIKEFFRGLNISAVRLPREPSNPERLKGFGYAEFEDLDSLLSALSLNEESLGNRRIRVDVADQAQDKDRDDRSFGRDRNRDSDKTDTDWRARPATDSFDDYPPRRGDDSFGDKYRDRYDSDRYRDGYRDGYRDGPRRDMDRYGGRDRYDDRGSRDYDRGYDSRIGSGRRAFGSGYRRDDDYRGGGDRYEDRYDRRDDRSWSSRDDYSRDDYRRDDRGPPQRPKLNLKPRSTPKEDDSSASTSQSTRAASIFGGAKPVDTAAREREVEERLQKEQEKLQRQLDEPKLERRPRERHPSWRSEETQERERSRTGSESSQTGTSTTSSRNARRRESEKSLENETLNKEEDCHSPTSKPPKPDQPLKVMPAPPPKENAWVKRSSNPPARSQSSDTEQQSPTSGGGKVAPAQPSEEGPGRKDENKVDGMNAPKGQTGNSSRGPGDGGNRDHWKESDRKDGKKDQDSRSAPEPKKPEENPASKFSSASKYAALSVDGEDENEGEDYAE
Method in brief: as §1

P04040 = target: T3, P04040 (Homo sapiens, UniProt P04040)
T3 construct: endogenous in cells; host or cells: DM93 cells (SILAC)
T3 sequence (P04040 whole entry): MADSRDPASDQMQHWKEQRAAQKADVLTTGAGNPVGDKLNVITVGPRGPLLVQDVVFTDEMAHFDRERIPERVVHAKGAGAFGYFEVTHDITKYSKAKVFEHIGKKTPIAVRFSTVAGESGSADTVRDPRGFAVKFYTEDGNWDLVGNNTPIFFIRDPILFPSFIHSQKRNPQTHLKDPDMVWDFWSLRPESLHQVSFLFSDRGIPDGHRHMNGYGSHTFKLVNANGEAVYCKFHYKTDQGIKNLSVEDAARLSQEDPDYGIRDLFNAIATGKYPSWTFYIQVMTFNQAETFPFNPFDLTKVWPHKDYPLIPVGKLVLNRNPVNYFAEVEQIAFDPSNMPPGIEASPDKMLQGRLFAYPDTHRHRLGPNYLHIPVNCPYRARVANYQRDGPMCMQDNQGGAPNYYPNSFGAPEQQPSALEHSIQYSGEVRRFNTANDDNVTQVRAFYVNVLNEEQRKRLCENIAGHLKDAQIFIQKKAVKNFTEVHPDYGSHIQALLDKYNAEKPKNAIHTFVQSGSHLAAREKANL
Method in brief: as §1

O43156 = target: T4, O43156 (Homo sapiens, UniProt O43156)
T4 construct: endogenous in cells; host or cells: DM93
T4 sequence (O43156 whole entry): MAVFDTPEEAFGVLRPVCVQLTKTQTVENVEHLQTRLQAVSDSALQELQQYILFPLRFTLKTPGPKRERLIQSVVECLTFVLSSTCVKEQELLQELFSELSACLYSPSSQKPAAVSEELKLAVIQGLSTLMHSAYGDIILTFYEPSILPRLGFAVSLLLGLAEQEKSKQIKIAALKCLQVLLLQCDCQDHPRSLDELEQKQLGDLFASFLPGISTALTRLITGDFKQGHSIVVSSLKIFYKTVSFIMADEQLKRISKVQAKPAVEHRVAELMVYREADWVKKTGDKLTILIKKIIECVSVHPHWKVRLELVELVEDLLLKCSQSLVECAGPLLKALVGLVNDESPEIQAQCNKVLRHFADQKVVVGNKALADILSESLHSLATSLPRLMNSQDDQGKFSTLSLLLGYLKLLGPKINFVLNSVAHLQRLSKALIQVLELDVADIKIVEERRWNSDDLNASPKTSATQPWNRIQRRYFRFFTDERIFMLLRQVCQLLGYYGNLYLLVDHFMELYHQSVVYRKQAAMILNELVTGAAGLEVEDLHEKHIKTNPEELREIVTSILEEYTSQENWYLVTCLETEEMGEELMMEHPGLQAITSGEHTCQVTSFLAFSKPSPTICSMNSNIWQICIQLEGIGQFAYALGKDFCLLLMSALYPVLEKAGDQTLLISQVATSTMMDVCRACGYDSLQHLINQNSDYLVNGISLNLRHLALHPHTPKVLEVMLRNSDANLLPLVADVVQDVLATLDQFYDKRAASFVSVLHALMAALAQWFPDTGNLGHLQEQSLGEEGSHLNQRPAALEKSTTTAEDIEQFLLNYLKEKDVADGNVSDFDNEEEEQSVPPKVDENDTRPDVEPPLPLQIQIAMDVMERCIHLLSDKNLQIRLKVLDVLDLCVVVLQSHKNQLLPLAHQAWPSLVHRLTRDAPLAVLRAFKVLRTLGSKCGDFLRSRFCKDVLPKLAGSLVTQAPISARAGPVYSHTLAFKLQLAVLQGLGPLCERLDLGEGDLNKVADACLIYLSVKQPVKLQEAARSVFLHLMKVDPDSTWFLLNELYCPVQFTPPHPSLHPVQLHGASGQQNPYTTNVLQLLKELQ
Method in brief: as §1

O00232 = target: T5, O00232 (Homo sapiens, UniProt O00232)
T5 construct: endogenous in cells; host or cells: DM93
Method in brief: as §1

Q9BUT1 = target: T6, Q9BUT1 (Homo sapiens, UniProt Q9BUT1)
T6 construct: endogenous in cells; host or cells: DM93 cells (SILAC), treated live; soluble proteome analysed
Method in brief: as §1

P24666 = target: T7, P24666 (Homo sapiens, UniProt P24666)
T7 construct: endogenous in cells; host or cells: DM93 (SILAC)
Method in brief: as §1

P62263 = target: T8, P62263 (Homo sapiens, UniProt P62263)
T8 construct: performing SuTEx compound screening directly in cells; endogenous in cells; host or cells: DM93 cells (SILAC)
Method in brief: as §1

Q86XP3 = target: T9, Q86XP3 (Homo sapiens, UniProt Q86XP3)
T9 construct: endogenous in cells; host or cells: DM93 cells (SILAC), live-cell treatment
Method in brief: as §1

Q8IWS0 = target: T10, Q8IWS0 (Homo sapiens, UniProt Q8IWS0)
T10 construct: endogenous in cells; host or cells: DM93 cells (SILAC), live-cell treatment
Method in brief: as §1

P42704 = target: T11, P42704 (Homo sapiens, UniProt P42704)
T11 construct: endogenous in cells; host or cells: DM93 cells (SILAC)
Method in brief: as §1

P13010 = target: T12, P13010 (Homo sapiens, UniProt P13010)
T12 construct: endogenous in cells; host or cells: DM93 cells (SILAC)
T12 sequence (P13010 2-732 limits assumed): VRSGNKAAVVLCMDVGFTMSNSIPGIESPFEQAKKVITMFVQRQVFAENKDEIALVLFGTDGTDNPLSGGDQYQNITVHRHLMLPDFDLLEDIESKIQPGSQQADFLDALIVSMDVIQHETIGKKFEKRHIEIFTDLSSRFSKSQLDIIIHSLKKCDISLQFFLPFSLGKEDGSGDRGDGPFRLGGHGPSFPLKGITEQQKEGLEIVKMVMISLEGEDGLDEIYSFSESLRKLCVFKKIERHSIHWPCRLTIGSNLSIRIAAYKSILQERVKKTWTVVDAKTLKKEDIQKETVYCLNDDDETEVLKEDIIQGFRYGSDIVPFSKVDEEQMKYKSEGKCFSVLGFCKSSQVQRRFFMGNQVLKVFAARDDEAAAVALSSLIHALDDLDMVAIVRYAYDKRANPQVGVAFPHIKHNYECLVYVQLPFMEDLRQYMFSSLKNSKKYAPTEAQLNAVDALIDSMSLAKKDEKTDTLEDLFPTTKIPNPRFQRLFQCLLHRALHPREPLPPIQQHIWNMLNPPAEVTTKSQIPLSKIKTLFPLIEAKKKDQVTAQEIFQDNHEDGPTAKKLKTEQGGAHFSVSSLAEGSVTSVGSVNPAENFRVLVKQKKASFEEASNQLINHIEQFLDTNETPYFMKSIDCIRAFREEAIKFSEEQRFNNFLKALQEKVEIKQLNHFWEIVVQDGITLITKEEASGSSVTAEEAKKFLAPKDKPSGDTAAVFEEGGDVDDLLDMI
T12 sequence (P12956 2-609 partner limits assumed): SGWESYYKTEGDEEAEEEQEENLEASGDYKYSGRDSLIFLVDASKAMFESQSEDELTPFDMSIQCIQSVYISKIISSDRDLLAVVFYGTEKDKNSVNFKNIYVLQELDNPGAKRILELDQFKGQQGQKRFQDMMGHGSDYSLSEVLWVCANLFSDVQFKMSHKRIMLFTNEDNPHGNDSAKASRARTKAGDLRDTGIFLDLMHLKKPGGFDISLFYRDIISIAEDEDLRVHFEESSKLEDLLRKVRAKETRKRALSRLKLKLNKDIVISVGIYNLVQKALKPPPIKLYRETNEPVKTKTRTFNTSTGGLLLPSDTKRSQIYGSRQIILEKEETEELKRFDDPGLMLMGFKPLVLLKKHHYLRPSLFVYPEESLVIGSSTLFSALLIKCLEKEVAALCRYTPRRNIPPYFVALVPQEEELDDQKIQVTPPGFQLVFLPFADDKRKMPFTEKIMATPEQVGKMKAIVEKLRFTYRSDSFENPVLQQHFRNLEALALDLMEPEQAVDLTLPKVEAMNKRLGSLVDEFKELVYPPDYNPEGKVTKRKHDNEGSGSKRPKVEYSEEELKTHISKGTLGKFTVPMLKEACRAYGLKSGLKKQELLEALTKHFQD
Method in brief: as §1

Q9NV35 = target: T13, Q9NV35 (Homo sapiens, UniProt Q9NV35)
T13 construct: endogenous in cells; host or cells: DM93 cells (SILAC), treated live; soluble proteome analysed
Method in brief: as §1

P23921 = target: T14, P23921 (Homo sapiens, UniProt P23921)
T14 construct: Probe-modified proteins from the soluble fraction were conjugated to a desthiobiotin-azide tag; endogenous in cells; host or cells: DM93 (SILAC)
T14 sequence (P23921 whole entry): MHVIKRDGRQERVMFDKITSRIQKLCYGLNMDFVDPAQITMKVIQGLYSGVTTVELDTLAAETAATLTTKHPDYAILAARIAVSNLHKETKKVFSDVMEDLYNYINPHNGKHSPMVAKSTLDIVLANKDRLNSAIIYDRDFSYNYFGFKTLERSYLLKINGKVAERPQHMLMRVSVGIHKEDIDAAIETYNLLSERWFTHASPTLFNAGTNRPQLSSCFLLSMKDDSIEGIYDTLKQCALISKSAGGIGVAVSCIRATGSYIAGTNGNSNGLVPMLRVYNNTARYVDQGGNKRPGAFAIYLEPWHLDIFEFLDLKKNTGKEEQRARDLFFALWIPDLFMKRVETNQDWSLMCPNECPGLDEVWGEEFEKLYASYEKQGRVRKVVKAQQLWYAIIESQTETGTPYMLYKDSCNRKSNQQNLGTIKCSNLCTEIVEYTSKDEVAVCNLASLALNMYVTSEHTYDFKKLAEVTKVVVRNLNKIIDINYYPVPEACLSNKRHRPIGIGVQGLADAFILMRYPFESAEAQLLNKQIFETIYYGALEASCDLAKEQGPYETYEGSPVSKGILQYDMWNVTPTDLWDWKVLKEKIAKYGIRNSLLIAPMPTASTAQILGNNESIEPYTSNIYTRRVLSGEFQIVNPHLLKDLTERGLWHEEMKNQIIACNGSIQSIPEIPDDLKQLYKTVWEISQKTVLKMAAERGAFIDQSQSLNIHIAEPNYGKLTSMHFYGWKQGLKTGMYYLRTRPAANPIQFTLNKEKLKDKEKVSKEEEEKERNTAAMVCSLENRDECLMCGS
Method in brief: as §1

Q7Z6M1 = target: T15, Q7Z6M1 (Homo sapiens, UniProt Q7Z6M1)
T15 construct: endogenous in cells; host or cells: DM93 cells (SILAC), live-cell treatment
Method in brief: as §1

P06132 = target: T16, P06132 (Homo sapiens, UniProt P06132)
T16 construct: endogenous in cells; host or cells: DM93 cells (SILAC)
Method in brief: as §1

Q13057 = target: T17, Q13057 (Homo sapiens, UniProt Q13057)
T17 construct: performing SuTEx compound screening directly in cells; endogenous in cells; host or cells: DM93 cells (SILAC), soluble fraction
T17 sequence (Q13057 whole entry): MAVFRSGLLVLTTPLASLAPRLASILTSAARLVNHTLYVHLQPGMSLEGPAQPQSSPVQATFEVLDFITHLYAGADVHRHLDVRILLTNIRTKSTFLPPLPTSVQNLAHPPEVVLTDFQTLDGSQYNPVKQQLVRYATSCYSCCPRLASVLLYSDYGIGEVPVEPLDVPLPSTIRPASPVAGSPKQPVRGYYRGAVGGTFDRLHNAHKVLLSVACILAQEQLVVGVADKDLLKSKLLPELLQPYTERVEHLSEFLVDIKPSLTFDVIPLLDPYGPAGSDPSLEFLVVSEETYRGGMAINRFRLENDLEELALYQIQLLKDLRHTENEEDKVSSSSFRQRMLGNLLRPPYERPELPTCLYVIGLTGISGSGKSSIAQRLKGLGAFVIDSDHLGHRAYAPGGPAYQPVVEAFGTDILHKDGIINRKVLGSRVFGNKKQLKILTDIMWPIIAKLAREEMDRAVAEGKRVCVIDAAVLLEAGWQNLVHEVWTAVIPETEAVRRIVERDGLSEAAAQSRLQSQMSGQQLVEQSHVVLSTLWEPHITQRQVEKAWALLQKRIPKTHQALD
Method in brief: as §1

Q9NW64 = target: T18, Q9NW64 (Homo sapiens, UniProt Q9NW64)
T18 construct: endogenous in cells; host or cells: DM93 cells (SILAC)
Method in brief: as §1

SMILES: O=C(NC1CC1)c1ccc(S(=O)(=O)n2cncn2)cc1 [HHS-0101, 4-((1H-1,2,4-triazol-1-yl)sulfonyl)-N-cyclopropylbenzamide]
- liganded tyrosine site 23 (Q8NBF2): HHS0101.Y (tyrosine sites that showed >80% reductions (SR >5) in probe labeling in cells treated with compounds (liganded sites))
- liganded tyrosine site 258 (P23588): HHS0101.Y (tyrosine sites that showed >80% reductions (SR >5) in probe labeling in cells treated with compounds (liganded sites))
- liganded tyrosine site 358 (P04040): HHS0101.Y|HHS0201.Y|HHS0301.Y|HHS0701.Y (tyrosine sites that showed >80% reductions (SR >5) in probe labeling in cells treated with compounds (liganded sites))
- liganded tyrosine site 51 (O43156): HHS0101.Y|HHS0401.Y|HHS0701.Y (tyrosine sites that showed >80% reductions (SR >5) in probe labeling in cells treated with compounds (liganded sites))
- liganded tyrosine site 20 (O00232): HHS0101.Y|HHS0301.Y|HHS0401.Y|HHS0701.Y (tyrosine sites that showed >80% reductions (SR >5) in probe labeling in cells treated with compounds (liganded sites))
- liganded tyrosine site 49 (Q9BUT1): HHS0101.Y (tyrosine sites that showed >80% reductions (SR >5) in probe labeling in cells treated with compounds (liganded sites))

SMILES: O=C(NCC1CC1)c1ccc(S(=O)(=O)n2cncn2)cc1 [HHS-0201, 4-((1H-1,2,4-triazol-1-yl)sulfonyl)-N-(cyclopropylmethyl)benzamide]
- liganded tyrosine site 88 (P24666): HHS0201.Y|HHS0401.Y|HHS0701.Y (tyrosine sites that showed >80% reductions (SR >5) in probe labeling in cells treated with compounds (liganded sites))
- liganded tyrosine site 72 (P62263): HHS0201.Y|HHS0301.Y (tyrosine sites that showed >80% reductions (SR >5) in probe labeling in cells treated with compounds (liganded sites))
- liganded tyrosine site 685 (Q86XP3): HHS0201.Y (tyrosine sites that showed >80% reductions (SR >5) in probe labeling in cells treated with compounds (liganded sites))
- liganded tyrosine site 303 (Q8IWS0): HHS0201.Y (tyrosine sites that showed >80% reductions (SR >5) in probe labeling in cells treated with compounds (liganded sites))
- liganded tyrosine site 1365 (P42704): HHS0201.Y (tyrosine sites that showed >80% reductions (SR >5) in probe labeling in cells treated with compounds (liganded sites))
- liganded tyrosine site 295 (P13010): HHS0201.Y (tyrosine sites that showed >80% reductions (SR >5) in probe labeling in cells treated with compounds (liganded sites))
- liganded tyrosine site 92 (Q9NV35): HHS0201.Y (tyrosine sites that showed >80% reductions (SR >5) in probe labeling in cells treated with compounds (liganded sites))

SMILES: O=C(NCc1ccccc1)c1ccc(S(=O)(=O)n2cncn2)cc1 [HHS-0401, 4-((1H-1,2,4-triazol-1-yl)sulfonyl)-N-benzylbenzamide]
- liganded tyrosine site 485 (P23921): HHS0401.Y (tyrosine sites that showed >80% reductions (SR >5) in probe labeling in cells treated with compounds (liganded sites))
- liganded tyrosine site 87 (Q7Z6M1): HHS0401.Y|HHS0701.Y (tyrosine sites that showed >80% reductions (SR >5) in probe labeling in cells treated with compounds (liganded sites))
- liganded tyrosine site 164 (P06132): HHS0401.Y (tyrosine sites that showed >80% reductions (SR >5) in probe labeling in cells treated with compounds (liganded sites))

SMILES: O=C(NC1CCCCC1)c1ccc(S(=O)(=O)n2cncn2)cc1 [HHS-0301, 4-((1H-1,2,4-triazol-1-yl)sulfonyl)-N-cyclohexylbenzamide]
- liganded tyrosine site 126 (Q13057): HHS0301.Y (tyrosine sites that showed >80% reductions (SR >5) in probe labeling in cells treated with compounds (liganded sites))
- liganded tyrosine site 116 (Q9NW64): HHS0301.Y (tyrosine sites that showed >80% reductions (SR >5) in probe labeling in cells treated with compounds (liganded sites))

Reference: patent US20240210412A1, “SULFONYL-TRIAZOLE COMPOUNDS USEFUL AS LIGANDS AND INHIBITORS OF PROSTAGLANDIN REDUCTASE 2” (University of Virginia Patent Foundation, priority 2021, published 2024)
